The structures appear in SMILES notation. ± gives the expanded uncertainty stated by the source.

The conditions of this data set: Crystal; DTA.

Consider `CC(C)Cc1ccc([C@H](C)C(=O)O)cc1.CCCCCCCCNC[C@H](O)[C@@H](O)[C@H](O)[C@H](O)CO` [S-ibuprofen n-octyl-d-glucamine salt], for which the Normal melting temperature was determined as 139.26 ± 0.39 °C.

(Values after the NIST ThermoML archive (doi:10.1016/j.fluid.2014.04.003).)
